Measured values: PubChem BioAssay (NCI)
“And” between values parts separate entries of the source, which are not always exact repeats. Equal entries are not always repeated.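 Each compound was tested at five concentrations against cells in 96-well plates for 48 hours. The concentration for 50% growth inhibition is given as GI50. The concentration for full growth arrest is given as TGI.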

Assays:
Experiment in all cases: NCI anticancer screen, dose series, 48 h
HOP-62 NSCLC = test system: HOP-62 NSCLC
MOLT-4 leukemia = test system: MOLT-4 leukemia
ACHN renal = test system: ACHN renal
KM12 colon = test system: KM12 colon
LOX IMVI melanoma = test system: LOX IMVI melanoma
SNB-75 CNS = test system: SNB-75 CNS
SF-295 CNS = test system: SF-295 CNS
SK-MEL-5 melanoma = test system: SK-MEL-5 melanoma

Row | SMILES | GI50 (HOP-62 NSCLC) | TGI (HOP-62 NSCLC) | GI50 (MOLT-4 leukemia) | GI50 (ACHN renal) | TGI (ACHN renal) [µM] | GI50 (KM12 colon) | TGI (KM12 colon) | GI50 (LOX IMVI melanoma) | TGI (LOX IMVI melanoma) | GI50 (SNB-75 CNS) | TGI (SNB-75 CNS) | GI50 (SF-295 CNS) | TGI (SF-295 CNS) | TGI (MOLT-4 leukemia) | GI50 (SK-MEL-5 melanoma) | TGI (SK-MEL-5 melanoma)
1 | COc1cccc2c1C(=O)c1c(O)c3c(c(O)c1C2=O)CC(O)(/C(C)=N/NC(=O)CCC(=O)N/N=C(\C)C1(O)Cc2c(O)c4c(c(O)c2C(OC2CC(N)C(O)C(C)O2)C1)C(=O)c1c(OC)cccc1C4=O)CC3OC1CC(N)C(O)C(C)O1 (stereo not given) | 0.19 µM | 1.57 µM | 0.142 µM | 0.277 µM | 2.9 | 0.755 µM | > 14.5 µM | 0.126 µM | 1.05 µM | 0.222 µM | 2.01 µM | 0.42 µM | 6.51 µM | – | – | –
2 | C[C@H]1Oc2cc(cnc2N)-c2c(nn(C)c2C#N)CN(C)C(=O)c2ccc(F)cc21 | 23 µM | > 100 µM | > 93.7 µM | 22.8 µM | > 100 | 0.275 µM | > 100 µM | 40.5 µM | > 100 µM | 21.7 µM | > 100 µM | 47.9 µM | > 100 µM | > 100 µM | > 74.8 µM | > 100 µM
3 | O=c1[nH]c(=O)n(C2CC(O)C(CO)O2)cc1CO (stereo not given) | > 100 µM | > 100 µM | > 100 µM | > 100 µM | > 100 | > 100 µM | > 100 µM | > 100 µM | > 100 µM | > 100 µM | > 100 µM | > 100 µM | > 100 µM | > 100 µM | > 100 µM | > 100 µM
4 | Ic1ccc(-n2nnnc2-c2cnoc2-c2ccccc2)cc1 | 53.3 µM | > 100 µM | 70 µM | > 61.1 µM | > 100 | 47.1 µM | > 89.6 µM | 49.3 µM | > 100 µM | > 56.8 µM | > 100 µM | 38.2 µM | > 77.8 µM | > 100 µM | 25.7 µM | > 72.7 µM
5 | O=C(c1c(F)ccc(NS(=O)(=O)N2CC[C@@H](F)C2)c1F)c1c[nH]c2ncc(-c3cnc(C4CC4)nc3)cc12 | 6.24 µM and 7.01 µM | > 10 µM and 58.6 µM | 6.66 µM and 5.12 µM | 4.91 µM and 4.34 µM | > 65.9 | 8.25 µM and 9.66 µM | > 10 µM and 33.6 µM | 0.305 µM and 0.342 µM | > 10 µM and 17.2 µM | 1.77 µM and 2.17 µM | > 10 µM and 12.8 µM | 5.87 µM and 4.71 µM | > 10 µM and 33.5 µM | > 10 µM and 35.5 µM | 1.01 µM and 0.651 µM | > 10 µM and 16.7 µM
6 | CCCCCCNC(=O)c1nc(-c2ccccc2)oc1Cc1ccc(OP(=O)(O)O)cc1 | 17.4 µM | 32.3 µM | 20.9 µM | 15.5 µM | 29.5 | 17.5 µM | 33.2 µM | 16.4 µM | 30.2 µM | 13.1 µM | 29.2 µM | – | – | 54.8 µM | 16.8 µM | 30.7 µM
7 | CCN(CC)CCOc1ccc(/C=C2\CC3C4CC=C5C[C@@H](O)CC[C@]5(C)C4CC[C@]3(C)C2=O)cc1OC (stereo not given in full) | 3.94 µM | 10.9 µM | 2.04 µM | 1.77 µM | 3.32 | 3.34 µM | 13.8 µM | – | – | 15.6 µM | 34.8 µM | 2.6 µM | 10.3 µM | > 23.5 µM | 6.58 µM | 22.6 µM
